From patent US20030225081A1, “Pyridazinones and triazinones and medicinal use thereof” (priority 2000, published 2003)

How the values were obtained:
AMPA receptor = experiment: Suppressing action to calcium influx into nerve cells induced by AMPA; assay type: cell-based; conditions: Fura2-AM, stimulation with 2 μM AMPA, primary culture of rat embryo cerebral cortex nerve cells, 1 μM MK-801
In short: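 Rat E18 cortical neurons grown on astrocyte feeder layers for 8–10 days or more, with 1 μM MK-801 in the medium. Cells were Fura2-AM-loaded for 1 h, then stimulated with 2 μM AMPA in Tyrode containing 1 μM MK-801. Calcium influx was read as the 340/380 nm excitation fluorescence change.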

[1] = tested on: convulsion induced by AMPA; experiment: Anticonvulsant action induced by AMPA; assay type: in vivo, mice of ddy strain; conditions: 25 mg/kg orally, mice; AMPA injected into lateral ventricle 30 minutes or 1 hour after administration
Procedure: Anticonvulsant Action Induced by AMPA A test compound was suspended in a 0.5% methyl cellulose solution or in sesame oil and was orally administered (25 mg/kg) to male mice of ddy strain. After 30 minutes or 1 hour from the oral administration, AMPA was continuously injected ([…]/5 μl/minute/mouse) into lateral ventricle to induce the convulsions. The effect was judged by a time-extending action until the convulsion takes place by a continuous injection of AMPA.

Compound	IC50 (AMPA receptor)	anticonvulsant action (time-extending action until the convulsion takes place) [1]
O=C1N(c2ccccc2)CC(c2ccccn2)=NN1c1ccccc1Br [Example 88, 2-(2-Bromophenyl)-4-phenyl-6-(2-pyridyl)-4,5-dihydro-1,2,4-triazin-3 (2H)-one]	100 nM	significantly inhibited the convulsion induced by AMPA
N#Cc1ccccc1-n1nc2c(c(-c3cccnc3)c1=O)COc1ccccc1-2 [Example 9, 2-(2-Cyanophenyl)-4-(3-pyridyl)-2,3-dihydro-5H-(1)benzopyrano[4,3-c]pyridazin-3-one]	20 nM	significantly inhibited the convulsion induced by AMPA
N#Cc1ccccc1N1N=C(c2ccccn2)CN(c2ccccc2)C1=O [Example 100, 2-(2-Cyanophenyl)-4-phenyl-6-(2-pyridyl)-4,5-dihydro-1,2,4-triazin-3 (2H)-one]	50 nM	significantly inhibited the convulsion induced by AMPA
O=c1c(-c2cccnc2)cc(-c2ccccn2)nn1-c1ccccc1 [Example 59, 2-Phenyl-4-(3-pyridyl)-6-(2-pyridyl)-3 (2H)-pyridazinone]	600 nM	significantly inhibited the convulsion induced by AMPA
N#Cc1ccccc1N1N=C(c2ccccn2)CN(c2cccnc2)C1=O [Example 103, 2-(2-Cyanophenyl)-6-(2-pyridyl)-4-(3-pyridyl)-4,5-dihydro-1,2,4-triazin-3 (2H)-one]	100 nM	significantly inhibited the convulsion induced by AMPA
O=C1C(c2ccccc2O)CC(c2ccccn2)=NN1c1ccccc1Br (stereo not drawn) [Example 29, 2-(2-Bromophenyl)-4-(2-hydroxyphenyl)-6-(2-pyridyl)-4,5-dihydro-3 (2H)-pyridazinone]	100 nM	significantly inhibited the convulsion induced by AMPA
N#Cc1ccccc1N1N=C(c2ccccn2)CN(c2ccccn2)C1=O [Example 102, 2-(2-Cyanophenyl)-6-(2-pyridyl)-4-(2-pyridyl)-4,5-dihydro-1,2,4-triazin-3 (2H)-one]	100 nM	significantly inhibited the convulsion induced by AMPA
N#Cc1ccccc1-n1nc(-c2ccccn2)cc(-c2cccnc2)c1=O [Example 45, 2-(2-Cyanophenyl)-4-(3-pyridyl)-6-(2-pyridyl)-3 (2H)-pyridazinone]	200 nM	significantly inhibited the convulsion induced by AMPA
COc1ccccc1C1=NN(c2ccccc2C#N)C(=O)N(c2ccccc2)C1 [Example 97, 2-(2-Cyanophenyl)-6-(2-methoxyphenyl)-4-phenyl-4,5-dihydro-1,2,4-triazin-3 (2H)-one]	700 nM	significantly inhibited the convulsion induced by AMPA
